Test system: gene encoding relaxin
Assay: AFFYMETRIX chicken genome array, oviduct RNA of hens fed selenium: relaxin
Format: in vivo
Conditions: 0.3 ppm selenium in diet, over forty weeks, relative to selenium deficient animals
Text: In an effort to examine possible benefits of administration of selenium on female reproductive performance, hens were randomly selected from a broiler-breeder flock housed at Coldstream poultry facility, University of Kentucky. The hens were maintained on a selenium-deficient diet from 6 weeks of age until 22 weeks of age and were then placed on the following dietary treatments for over forty weeks until the time of sampling: 1) Control, selenium-deficient, Torula yeast-based diet (0.02 ppm selenium); 2) The control diet supplemented with 0.3 ppm selenium from sodium selenite; and 3) The control diet supplemented with 0.3 ppm selenium from SEL-PLEX. Hens were taken from each of the three experimental groups, their oviducts removed, flash-frozen and stored at −80° C. prior to RNA isolation.
Labeled RNA preparations from oviduct were hybridized with AFFYMETRIX chicken genome arrays containing 38,000 probe sets using standard methodology.

For O=[Se](O)O [sodium selenite], the “relaxin gene expression, upregulation” value was “no significant effect”.

Reference: US8846111B2, “Compositions and methods for establishing and/or maintaining pregnancy” (Alltech, Inc., priority 2007, dated 2014)
